# Laboratory results published in patent publication US6465527B1, “Iodinated hydrocarbon pesticide” (priority 1999, dated 2002).
# “Also recorded” adds a separate entry of the source.
# Key:
# Type in all cases: in vivo
# [1] = system: 'Brim' soybean [Glycine max]; assay: Soybean growth in treated soil (Experiments 1 and 2)
# Procedure: Additionally, the nematicidal properties of iodinated hydrocarbons were investigated in greenhouse experiments with field soil infested with Meloidogyne arenaria and Heterodera Glycines. Chemicals were added directly to infested solid at rates <100 mg/Kg soil. Treated soil was kept moist (approximately 60 percent field capacity) and uncovered for 7-10 days when samples were collected, and the pots were planted with ‘Brim’ soybean, Glycine max. […] 1,2-diiodoethane (C2), 1,3-diiodopropane (C3), 1,4-diiodobutane (C4), 1,5-diiodopentane (C5), 1,6-diiodohexane (C6), and […] were applied to soil rates of 2.5, 5.0, 7.5, and 10 mg/Kg soil. All rates of C2 and C8 were ineffective in reducing M. arenaria juvenile (J2) populations in preplant samples. This was also true for C2 and J2 populations of H. glycines; however, […] rates ≧5.0 mg suppressed J2 populations of H. glycines. […] H. glycines J2 numbers in final soil samples were generally inversely related to rates for C3-C8. […] Applications of C3-C6 to soil increased shoot weights in a manner directly related to dosages but only in a curvilinear pattern.
# In this experiment, the nematicidal properties of various diiodinated hydrocarbons were compared. The nematicidal properties of diiodinated C2-C8 normal hydrocarbons was assessed in a greenhouse experiment with field soil infested with Meloidogyne arenaria [Ma] and Heterodera glycines [Hg]. 1,2-diiodoethane [C2], 1,3-diiodopropane [C3], 1,4-diiodobutane [C4], 1.5-diiodopentane [C5], 1,6-diiodohexane [C6] and 1,8-diiodooctane [C8] were applied to soil at rates of 2.5, 5.0, 7.5, and 10.0 mgs/kg soil. The potted soil was kept moist in a greenhouse for 10 days when preplant samples were collected for analysis, and the pots were planted with ‘Brim’ soybean [Glycine max]. After 7 weeks of growth, the plants were removed and final soil samples taken. Data was collected on weights of fresh roots and shoots, root galling by Ma, and numbers of nematodes in soil and roots. All rates of C2 and C8 were ineffective in reducing Ma juvenile [J2] populations in the preplant samples. This was also true for C2 and J2 populations of Hg; however, C8 rates ≧5.0 mg suppressed J2 populations of Hg. […] Hg J2 numbers in final soil samples were generally inversely related to rates for C3-C8. This pattern of suppression in J2 numbers was also applicable to Ma in the final soil samples but only for C3-C6. […] Applications of C3-C6 to soil increased shoot weights in a manner directly related to dosages but non-linear in pattern.
# [2] = system: cyst [Heterodera glycines]; assay: Greenhouse nematicide test, iodinated C1-C3 hydrocarbons (Experiment 4); details: 0.4 ml rate
# Procedure: In this experiment, the nematicidal properties of low molecular weight iodinated hydrocarbons were investigated. The nematicidal properties of iodinated C1-C3 hydrocarbons were evaluated in greenhouse experiments with field soil infested with root-knot [Meloidogyne arenaria] and cyst [Heterodera glycines] nematodes. lodomethane, di-iodomethane, iodoethane, di-iodoethane, and 1-iodopropane were added to soil at rates of 0.1, 0.2 and 0.4 ml/kg soil.
# The treated soil was kept moist for 10 days when soil samples were taken for nematode analysis and ‘Brim’ soybean [Glycine max] planted. Soybeans were allowed to grow for 8 weeks and then were removed from the soil to determine plant growth, root-knot indices and the number of galls generated by M arenaria. […] All compounds except 1-iodopropane increased fresh shoot weight when applied at ≧0.1 ml/kg soil.
# [3] = system: German cockroach, Blattella germanica (L.); assay: Fumigant toxicity in sealed glass jar, German cockroach; details: 30-60 adult males
# [4] = system: Meloidogyne arenaria, Pratylenchus brachyurus, and Paratrichodorus christiei; assay: Nematodes in roots and soils at end of Experiment 5 (all nematodes); details: after eight weeks of growth
# Procedure: In this experiment, the nematotoxic properties of ethylene diiodide were compared to that of methyl iodide. The nematicidal efficacies of iodomethane [IM] and ethylene diiodide [EDI] were compared in a greenhouse experiment using field soil infested with Meloidogyne arenaria, Pratylenchus brachyurus, and Paratrichodorus christiei.
# Each compound was added to soil at rates of 100, 200, 300 and 400 mg s/kg of soil. The soil was potted and kept moist for two weeks when it was planted with ‘Brim’ soybean after taking samples for nematological analyses. After eight weeks of growth, the plants were removed from the pots and soil samples taken. Data was collected on weights of fresh roots and shoots, general appearance of roots [root condition index] and root gall formation by M. arenaria. All EDI rates eliminated M. arenaria juveniles [J2] and populations of the other nematodes in the preplant samples; IM reduced J2 numbers by 50-70%, eliminated P. christiei with the 400 mg rate, but had no effect on P. brachyurus. […] The general appearance of roots was improved by EDI at rates ≦300 mg, but MI had no effect on the variable. […] M. arenaria J2 populations in roots were reduced by 60-70% by MI treatments, but the compound had no effect on root populations of P. brachyurus. MI had no effect on J2 populations in the final soil samples, although it suppressed P. christiei, by 50-70%.
# Heterodera glycines = assay: Greenhouse nematicide test, diiodinated C2-C8 hydrocarbons in infested field soil (Experiments 1 and 2)
# Meloidogyne arenaria = assay: as above
# [5] = all rates (2.5, 5.0, 7.5, 10 mg/Kg soil)
compound,measurement,setting,value
"ICCI [1,2-diiodoethane]",Shoot weights of soybean,[1]; 2.5 mg rate,increased shoot weights slightly
same,Shoot weights of soybean,[1]; rates higher than 2.5 mg,no significant effect
same,H. glycines J2 populations in soil,[2],eliminated
same,"% Mortality after 1 h exposure, German cockroach",[3]; 1 h exposure,40%
same,"% Mortality after 24 h exposure, German cockroach",[3]; 24 h exposure,10%
same,Nematodes in roots and soils at end of experiment,[4],no nematodes
same,H. glycines J2 populations in preplant samples,Heterodera glycines; [5],ineffective
same,H. glycines J2 numbers in final soil samples,"Heterodera glycines; final soil samples after soybean growth, rates 2.5-10 mg/kg soil, listed as C2",either no change in H. glycines J2 numbers or in increased numbers; also recorded: either no change in Hg J2 numbers or in increased numbers
same,H. glycines J2 populations in preplant samples,Heterodera glycines; rates ≧5.0 mg,suppressed
same,M. arenaria juvenile (J2) populations in preplant samples,Meloidogyne arenaria; [5],ineffective
same,M. arenaria J2 numbers in final soil samples,"Meloidogyne arenaria; final soil samples after soybean growth, rates 2.5-10 mg/kg soil",increased directly with C2 dosage
